Reference: US7038106B1, “Detection of neural activity” (The University Court of the University of Glasgow, priority 1998, dated 2006)
“Also recorded” adds a separate entry of the source. Where two headings read alike, the source gives them in different places.

How the values were obtained:
[1] = test system: mushroom bodies (Kenyon cells) of Drosophila adult brain; assay: Aequorin luminometry of endogenous intracellular calcium oscillation in intact Drosophila brain (GAL4-aeq lines); type: cell-based; details: for EC50: Drosophila melanogaster, read-out: EC50 for reduction of oscillation amplitude; for Effect on oscillation amplitude and period/frequency: concentration not given
[2] = test system: Honeybee KCs delayed rectifier-type current; details: cited from earlier work
[3] = test system: Honeybee KCs calcium current; details: cited from earlier work

With `Nc1ccncc1` [4-aminopyridine] as the compound, how does the “Sensitivity of oscillation in Sh5 background relative to Sh+ control (less sensitive)” value [1] read?
Its value is 10 fold.

And the EC50 ([1]; dose-response curves from amplitudes measured before and after treatment, […])?
The EC50 was ~30 µM.

And the “Effect on oscillation frequency / period” value ([1]; concentration not stated or dose-dependent)?
The value was “dose-dependent reduction of oscillation period”.

What about the “Effect on oscillation amplitude” value ([1]; concentration not stated or dose-dependent, […]) of the same compound?
The value was “reduce oscillation amplitude in a dose-dependent manner”.

Which Effect on oscillation ([1]; 1–10 mM range) does the source give for `[Co]` [Cobalt] here?
The Effect on oscillation was “gradual dampening effect on oscillation”.

For `O=C(O)CN(CCOCCOCCN(CC(=O)O)CC(=O)O)CC(=O)O` [EGTA], which Effect on oscillation ([1]; 1 mM, removal of external calcium) is on record?
Its Effect on oscillation is “Oscillation ceases”.

For `NCCCC(=O)O` [GABA], which “Effect on oscillation amplitude and period” value ([1]; 1 mM) is on record?
The value was “increases both amplitude and period”.

And the “Effect on oscillation amplitude and period/frequency” value [1]?
Its value is “increases both amplitude and period”.

For `CN1CCCC1c1cccnc1` (stereo not shown) [Nicotine], which Effect on oscillation [1] is on record?
Its Effect on oscillation is “complete abolition of oscillation”.

Which “Effect on delayed rectifier-type current” value ([2]; 100 μM) does the source give for `C=C[C@H]1C[N@@]2CC[C@H]1C[C@@H]2[C@@H](O)c1ccnc2ccc(OC)cc12` [Quinidine] here?
The value was “blocked”.

Which “Sensitivity of delayed rectifier-type current” value [2] does the source give for `CC(=O)[O-].CC[N+](CC)(CC)CC` [TEA, tetraethylammonium acetate] here?
The value was “only weakly sensitive”.

And the Effect on oscillation [1]?
Its Effect on oscillation is “eliminate oscillations”.

What about the EC50 [1] of the same compound?
The EC50 was ~70 µM.

With `Nc1c2c(nc3ccccc13)CCCC2` [Tacrine] as the compound, how does the EC50 ([1]; dose-response curves from amplitudes measured before and after treatment, 117Y-aeq adult brains) read?
The EC50 was ~1 µM.

And the “Effect on oscillation amplitude and period/frequency” value [1]?
The value was “reduce both oscillation amplitude and frequency”.

With `NC1=N[C@H](O)[C@H]2[C@H]3O[C@]4(O)O[C@@H]([C@@H](O)[C@@]2(N1)[C@@H]4O)[C@]3(O)CO` [Tetrodotoxin] as the compound, how does the Effect on oscillation [1] read?
The Effect on oscillation was “cessation of oscillation within a few cycles of application; also recorded: oscillation resumes in the form of a series of spaced bursts of very high relative amplitude”.

Which “Effect on calcium current” value [3] does the source give for `COc1ccc(CCN(C)CCCC(C#N)(c2ccc(OC)c(OC)c2)C(C)C)cc1OC` (stereo not shown) [Verapamil] here?
Its value is “affected”.

Which Effect on oscillation ([1]; 1 mM, cAMP pathway) does the source give for `CCCC(=O)Nc1ncnc2c1ncn2[C@@H]1O[C@@H]2COP(=O)(O)O[C@H]2[C@H]1OC(=O)CCC` [dibutyryl cAMP] here?
Its Effect on oscillation is “ineffective”.

Which “Effect on oscillation amplitude and period/frequency” value [1] does the source give for Picrotoxin [Pierotoxin] here?
The value was “opposite effects”.
